Target: T1, SHP2 protein (Homo sapiens, UniProt Q06124)
T1 sequence (Q06124 1-593): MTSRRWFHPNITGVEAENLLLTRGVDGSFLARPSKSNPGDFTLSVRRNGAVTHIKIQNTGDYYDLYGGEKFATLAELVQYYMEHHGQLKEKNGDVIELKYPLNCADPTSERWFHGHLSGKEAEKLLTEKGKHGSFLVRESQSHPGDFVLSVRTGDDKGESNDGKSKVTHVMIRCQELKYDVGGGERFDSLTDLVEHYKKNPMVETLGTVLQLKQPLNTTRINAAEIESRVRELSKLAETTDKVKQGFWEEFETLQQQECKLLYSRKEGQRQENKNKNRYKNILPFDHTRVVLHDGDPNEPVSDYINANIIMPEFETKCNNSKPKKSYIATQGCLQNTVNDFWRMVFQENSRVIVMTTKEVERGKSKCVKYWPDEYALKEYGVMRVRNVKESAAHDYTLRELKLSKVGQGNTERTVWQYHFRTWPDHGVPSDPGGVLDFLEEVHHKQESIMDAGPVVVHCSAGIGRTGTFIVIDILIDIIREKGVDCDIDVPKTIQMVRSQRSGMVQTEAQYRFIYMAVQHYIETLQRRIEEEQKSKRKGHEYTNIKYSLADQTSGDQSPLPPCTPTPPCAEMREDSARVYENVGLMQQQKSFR
Test: Degradation activity on SHP2 protein in MV-411 cells (Western blot, DC50)
Format: cell-based
Parameters: endogenous in cells
Details: MV411 cells, 24 hours, read-out: Degradation activity for differenct cell lines MV411 (DC50)
How it was run: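 Western blot of SHP2 (GAPDH loading control, 30 μg protein/lane) in lysates of MV-411 cells exposed 24 h to final compound concentrations of 100, 10, 3, 1, 0.3 and 0.1 nM (0.1% DMSO). Degradation relative to DMSO set at 100%; DC50 derived by curve fitting.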

DC50	Structure (SMILES)
< 100 nM	CC1(N)CCN(c2cnc(Sc3cccc(NC(=O)CCCCCCOC4CN(c5ncc(C(=O)NCc6ccc7c(c6)CN(C6CCC(=O)NC6=O)C7=O)cn5)C4)c3)cn2)CC1 (centres unmarked) [Compound 87]
< 100 nM	Cc1ncsc1-c1ccc([C@H](C)NC(=O)[C@@H]2C[C@@H](O)CN2C(=O)[C@@H](NC(=O)c2cnc(N3CCC4(CN(CCCCCCCC(=O)Nc5cccc(Sc6cnc(N7CCC(C)(N)CC7)cn6)c5)C4)C3)nc2)C(C)(C)C)cc1 [Compound 71]
> 1000 nM	CC1(CN)CCN(c2cnc(Sc3ccc(NC(=O)COCCOCC(=O)Nc4ccc5c(c4)C(=O)N(C4CCC(=O)NC4=O)C5)cc3Cl)cn2)CC1 (centres unmarked) [Compound 8]
< 100 nM	Cc1ncsc1-c1ccc([C@H](C)NC(=O)[C@@H]2C[C@@H](O)CN2C(=O)[C@@H](NC(=O)COCCOCCOCCOCC(=O)Nc2cccc(Sc3cnc(N4CCC(C)(N)CC4)cn3)c2)C(C)(C)C)cc1 [Compound 12]
< 100 nM	Cc1ncsc1-c1ccc([C@H](C)NC(=O)[C@@H]2C[C@@H](O)CN2C(=O)[C@@H](NC(=O)CCCCCCCCN2CCN(C(=O)/C=C/C(=O)Nc3cccc(Sc4cnc(N5CCC(C)(N)CC5)cn4)c3)CC2)C(C)(C)C)cc1 [Compound 54]
100 to 1000 nM	CC1(N)CCN(c2cnc(Sc3cccc(NC(=O)CCCCCCC(=O)N4CC5(CCN(c6ccc(C(=O)NCc7ccc8c(c7)CN(C7CCC(=O)NC7=O)C8=O)nn6)C5)C4)c3)cn2)CC1 (centres unmarked) [Compound 134]
< 100 nM	Cc1ncsc1-c1ccc([C@H](C)NC(=O)[C@@H]2C[C@@H](O)CN2C(=O)[C@@H](NC(=O)c2ccc(N3CC4CN(CCCCCCCC(=O)Nc5cccc(Sc6cnc(N7CCC(C)(N)CC7)cn6)c5)CC4C3)nn2)C(C)(C)C)cc1 (some centres unmarked) [Compound 99]
< 100 nM	Cc1ncsc1-c1ccc([C@H](C)NC(=O)[C@@H]2C[C@@H](O)CN2C(=O)[C@@H](NC(=O)c2cnc(N3CCN(CCOCCOCC(=O)Nc4cccc(Sc5cnc(N6CCC(C)(N)CC6)cn5)c4)CC3)nc2)C(C)(C)C)cc1 [Compound 66]
> 1000 nM	CC1(N)CCN(c2cnc(Sc3cccc(NC(=O)CCCCCCCCCCCCCCC(=O)NCc4ccc5c(c4)CN(C4CCC(=O)NC4=O)C5=O)c3)cn2)CC1 (centres unmarked) [Compound 42]
< 100 nM	NC1CCN(c2cnc(Sc3cccc(NC(=O)CCCCCCN4CC5(CCN(c6ccc(C(=O)NCc7ccc8c(c7)CN(C7CCC(=O)NC7=O)C8=O)nn6)C5)C4)c3)cn2)CC1CO (centres unmarked) [Compound 194]
< 100 nM	CC1(N)CCN(c2cnc(Sc3cccc(NC(=O)CCCCCCCN4CCN(c5ncc(C(=O)NCc6ccc7c(c6)CN(C6CCC(=O)NC6=O)C7=O)cn5)CC4)c3)cn2)CC1 (centres unmarked) [Compound 72]
> 1000 nM	CC(C)(C)OC(=O)NCC1(O)C2CCC1CN(c1cnc(Sc3cccc(NC(=O)CCCCCCN4CC5(CCN(c6ccc(C(=O)NCc7ccc8c(c7)CN(C7CCC(=O)NC7=O)C8=O)nn6)C5)C4)c3)cn1)C2 (centres unmarked) [Compound 203]
> 1000 nM	CC1(N)CCN(c2cnc(Sc3cccc(NC(=O)CCCCC(=O)Nc4cccc5c4CN(C4CCC(=O)NC4=O)C5=O)c3)cn2)CC1 (centres unmarked) [Compound 1]
< 100 nM	Cc1ncsc1-c1ccc([C@H](C)NC(=O)[C@@H]2C[C@@H](O)CN2C(=O)[C@@H](NC(=O)c2cnc(N3CCN(CCCCCCCC(=O)Nc4cccc(Sc5cnc(N6CCC(C)(N)CC6)cn5)c4)CC3)nc2)C(C)(C)C)cc1 [Compound 73]
100 to 1000 nM	Cc1ncsc1-c1ccc([C@H](C)NC(=O)[C@@H]2C[C@@H](O)CN2C(=O)[C@@H](NC(=O)CCCCCCCCCCN2CC(C(=O)Nc3cccc(Sc4cnc(N5CCC(C)(N)CC5)cn4)c3)C2)C(C)(C)C)cc1 [Compound 44]
> 1000 nM	CC1(N)CCN(c2cnc(Sc3cccc(NC(=O)C4CCN(CCCCCCCCCCC(=O)NCc5ccc6c(c5)CN(C5CCC(=O)NC5=O)C6=O)CC4)c3)cn2)CC1 (centres unmarked) [Compound 37]

Structure (SMILES)	DC50
CN[C@H](C)C(=O)N[C@@H](C(=O)N1C[C@@H](NC(=O)c2ccc(N3CC4CCC(C3)N4CCCCCCCCC(=O)Nc3cccc(Sc4cnc(N5CCC(N)C(F)C5)cn4)c3)nn2)C[C@@H]1C(=O)Nc1c(F)cccc1F)C(C)(C)C (some centres unmarked) [Compound 142]	> 1000 nM
